Results: patent US20100184810A1, “METHODS AND COMPOSITIONS RELATED TO RIBOSWITCHES THAT CONTROL ALTERNATIVE SPLICING” (Yale University, priority 2007, published 2010)
Where two headings read alike, the source gives them in different places.

Key:
[1] = biological target: NMT1 riboswitch aptamer; assay: In-line probing of NMT1 RNA constructs (TPP binding); parameters: species or system N. crassa
Method: In-line probing of RNA constructs. 5′ 32P-labeled RNAs were incubated at 23° C. for 40 hours in 50 mM Tris-HCl (pH 8.3 at 25° C.), 20 mM MgCl2 and 100 mM KCl in the presence or absence of TPP as defined. Cleavage products were separated by denaturing 10% PAGE, visualized by PhosphorImager (GE Healthcare), and quantified using ImageQuant software. KD values were determined by plotting the normalized fraction of RNA cleaved versus the logarithm of ligand concentration used. […] The results for in-line probing of 197 NMT1 and 115 NMT1 are depicted in FIG. 8 and FIG. 9, the results for 261 NMT1 are depicted in FIG. 10 and the results for 273 NMT1 are depicted in FIG. 11. Alternative base pairing similar to that being examined in the 273 NMT1 construct is observed in other fungal TPP riboswitches located in NMT1 mRNAs (FIG. 12).

[2] = test system: NMT1 precursor mRNA
Method: (§1) RNA Analyses. RT-PCR analyses were conducted using RNA from untransformed N. crassa inoculated into 100 ml of Vogel's minimal medium supplemented with 0.5 mg ml-1 L-histidine. Cultures were grown at 30° C. with shaking at 150 rpm for 24 h either in the absence or presence of supplemented 30 μM thiamine. The cDNA was used as a template for PCR amplification of the 5′ regions of the three genes using primers and methods as described in Supplementary Information. All splicing products were confirmed by cloning and sequencing.
(§2) Reverse transcriptase-polymerase chain reaction (RT-PCR) analyses. Total RNA was isolated from mycelia using TRIzol® LS reagent (Invitrogen) according to the manufacturer's directions. 5 μg of total RNA was treated with RNase free DNase I (Promega) for 30 min at 37° C. cDNA was generated by reverse transcription with a polyT primer for 1 hr at 42° C. using SuperScript™ II Reverse Transcriptase (Invitrogen) according to the manufacturer's directions. To exclude the possibility of amplification products originating from contamination with genomic DNA, control reactions using RNA preparations before RT were performed and, for NMT1, a reverse primer spanning an exon-exon border in the coding region was used.
as §2, with “used. […] For sequence identification all amplification products were cloned and confirmed by sequencing several independent clones.” for “used.”
(§3) A specific primer combination was used for every gene with one primer binding to the annotated 5′ end of the transcript and a second primer binding immediately downstream of the riboswitch-containing intron. For the NMT1 gene, the primers used for PCR were DNA37 and DNA38 (FIG. 14), corresponding to the annotated 5′ end of the NMT1 mRNA and a region approximately 50 nucleotides downstream of the TPP riboswitch-containing intron, respectively. For the THI4 (CyPBP37) gene, the primers used were DNA39 and DNA40, corresponding to the 5′ end of the mRNA and a region approximately 125 nucleotides downstream of the TPP riboswitch-containing intron, respectively.

[3] = test system: THI4 precursor mRNA; conditions: 30 μM thiamine in growth medium, 24 h
Method: as §1, §2
as §2, with “used. […] For sequence identification all amplification products were cloned and confirmed by sequencing several independent clones.” for “used.”
as §3

[4] = test system: FREQUENCY (FRQ) transcripts; conditions: 30 μM thiamine in minimal medium
Method: as §2
Reverse transcriptase-polymerase chain reaction (RT-PCR) analyses. Total RNA was isolated from mycelia using TRIzol® LS reagent (Invitrogen) according to the manufacturer's directions. 5 μg of total RNA was treated with RNase free DNase I (Promega) for 30 min at 37° C. cDNA was generated by reverse transcription with a polyT primer for 1 hr at 42° C. using SuperScript™ II Reverse Transcriptase (Invitrogen) according to the manufacturer's directions. […]

[5] = test system: NMT1 TPP riboswitch
Method: Reporter Gene Assays. Transformation of N. crassa was conducted using electroporation of freshly suspended macroconidia and insertion of the target gene was verified by PCR with insert specific primers from genomic DNA. Transcription of luciferase reporter constructs was constitutively driven by the N. crassa beta-tubulin (BTUB) promoter inserted upstream of the NMT1 5′ UTR. […] Samples were isolated and assayed for luciferase activity as described below.
(§4) Luciferase reporter gene assays. Mycelia from N. crassa transformed with LUC reporter constructs were isolated by filtration and approximately 100 mg of tissue was ground to a fine powder. […] Luciferase activity was determined for the resulting supernatant using the Luciferase Assay System (Promega) and a plate-reading luminometer (Wallac). Luciferase activity was normalized over total protein concentration of the extract as determined by Bradford Protein Assay (BioRad) and finally expressed relative to a reference construct.
Luciferase reporter gene assays. […] Luciferase activity was determined for the resulting supernatant using the Luciferase Assay System (Promega) and a plate-reading luminometer (Wallac). Luciferase activity was normalized over total protein concentration of the extract as determined by Bradford Protein Assay (BioRad) and finally expressed relative to a reference construct.

[6] = test system: TPP riboswitch in the N. crassa NCU01977.1 mRNA; conditions: 30 μM thiamine, 24 h
Method: LUC activity was normalized to the value measured at t=0 h.
Luciferase reporter gene assays. Mycelia from N. crassa transformed with LUC reporter constructs were isolated by filtration and approximately 100 mg of tissue was ground to a fine powder. After addition of 100 gl 1× Passive Lysis Buffer (Promega), the samples were vigorously mixed and incubated on ice for 30 min followed by centrifugation for 15 minutes at 13,000 g. Luciferase activity was determined for the resulting supernatant using the Luciferase Assay System (Promega) and a plate-reading luminometer (Wallac). Luciferase activity was normalized over total protein concentration of the extract as determined by Bradford Protein Assay (BioRad) and finally expressed relative to a reference construct.
as §4

[7] = test system: thiA mRNA carrying a TPP aptamer; conditions: thiamine supplementation of growth medium; cited from earlier work
[8] = 30 μM thiamine added at t=0 to culture grown in thiamine-free medium

Structure (SMILES)	Kd ([1]; both constructs (197 NMT1 and 115 NMT1), in-line probing, 23° C., 40 hours, 20 mM MgCl2, read-out: apparent dissociation constant (KD)) [nM]	structural modulation of nucleotides at the branch site ([1]; in-line probing of 261 NMT1 RNA, 10 μM TPP)	structural modulation at the second 5′ splice site ([1]; in-line probing of 273 NMT1 RNA, 10 μM TPP)	NMT1 transcript types within four hours after thiamine supplementation [2, 8]	NMT1 transcript types within the first hour after thiamine supplementation [2, 8]	effect on splicing of NMT1 precursor mRNA ([2]; 30 μM thiamine in growth medium, 24 h)	effect on splicing of THI4 precursor mRNA [3]	effect on splicing of an RNA that does not carry the TPP riboswitch (FRQ) [4]	effect on splicing of an RNA that does not carry the TPP riboswitch (FRQ) ([4]; listed as Thiamine)	LUC expression, constructs I-2R and I-3R (TPP riboswitch absent) ([5]; 30 μM thiamine in the medium)	LUC reporter expression, wild-type (WT) NMT1 construct ([5]; grown overnight in medium supplemented with 30 μM thiamine)	LUC expression, NCU01977.1 reporter fusion construct [6]	thiA gene expression [7]
Cc1ncc(C[n+]2csc(CCO[P@](=O)(O)OP(=O)(O)O)c2C)c(N)n1 [TPP, thiamine pyrophosphate]	~0.3	more structured	more flexible structure										
Cc1ncc(C[n+]2csc(CCO)c2C)c(N)n1 [thiamine]				I-3 is almost completely replaced by I-2 and I-1	the splicing product I-2 and the unspliced NMT1 precursor RNA I-1 appear	causes alternative splicing	causes alternative splicing	do not change in number relative to each other	does not affect splicing	unchanged	Substantial repression	an increase in LUC expression	reduced gene expression
